Patent US4863874A, “Method for detecting phosphatidylinositol through binding to Concanavalin A” (The United States of America as represented by the …, priority 1986, dated 1989)
Where two headings read alike, the source gives them in different places.

Tests used:
Con A [1] = target: T1, Con A (Canavalia ensiformis, UniProt P02866); assay: Inhibition of Con A binding to liposomes
T1 construct: purchased Sigma Chemical Co., St. Louis, MO
Description: Similar incubations as those described in FIG. 1 were set up with liposomes and Con A. α-MM (FIG. 2a) or myo-inositol (FIG. 2b) were used as inhibitors in the concentrations indicated.
Liposomes containing PL (DMPC, or DMPC/PI) and cholesterol in molar ratios 2/1.5 were used throughout. When PI was included in the liposomes, it was in a 1/1 molar ratio with DMPC. Preparation of liposomes (multilamellar vesicles) is reported in detail (Alving, C. R., Shichijo, S., and Mattsby-Baltzer, I. (1984) in Liposome Technology, (G. Gregoriadis, edition), Vol. II, pages 157-175, CRC, Boca Raton, FL). Briefly, lipids (PLs and cholesterol) were dried in vacuo in pear-shaped flasks and dispersed in a small volume of 0.15M NaCl with the aid of a few acid washed glass beads. The final PL concentration in the aqueous dispersion was 10 mM.
(§1) Studies on the binding of Con A to liposomes were performed as follows: Con A and inhibitors (if present) in the concentrations indicated in the individual figures were incubated with 100 μl of liposomes in a final volume of 1.0 ml of buffer for 45 minutes at 25° C. After incubation, liposomes were washed twice with 2 ml portions of 0.9% NaCl-0.01M NaHCO3 (pH 7.0) and collected by centrifugation at 140,000 g for 5 minutes. Bicarbonate-saline was the buffer used throughout for solution, washing and dilutions. Specific protein binding to liposomes was measured by a Lowry assay adapted to measurement of proteins on liposomes as described previously (Alving, C. R., and Kinsky, S. C. (1971) Immunochemistry, Vol. 8, pages 325-343).
Con A binding to mannose is widely accepted as the major binding specificity for Con A, and inhibition of Con A by α-MM is often used as a criterion for specificity of binding (Lis, H. and Sharon, N. (1973) Ann. Rev. Biochem., Vol. 42, pages 541-574). […] Since Con A binding was increased by the presence of PI in the liposomes we tried to inhibit it by adding increasing concentrations of myo-inositol as a soluble inhibitor. […] Therefore we conclude that the binding of Con A to PI is specific and probably involves the inositol moiety of PI.

Con A [2] = target: T1, Con A; assay: Binding to Con A by equilibrium dialysis, Scatchard plot
From the text: Equilibrium dialysis (microtechnique), as described by Karush, et al. (Karush, F., Karush, S. S. and Eisen, H. N. (1971) in Methods of Immunology and Immunochemistry (C. A. Williams, and M. W. Chase, Edition), Vol. III, pages 383-394, Academic Press, NY) was used to determine the binding of Con A to α-mannose, α-L-fucose, or myo-inositol. The data were plotted according to the method of Scatchard (Scatchard, G. (1949) Ann. N.Y. Acad. Sci., Vol. 51, pages 660-672).
The binding of Con A to α-D-[^3 H]-mannose or myo-[^3 H]-inositol in 0.01M bicarbonate-saline, pH 7.0, at room temperature was investigated by equilibrium dialysis. […] The ratio of the molar concentration of the bound sugar to that of protein is represented by r, c is the molar concentration of free sugar, n is the number of binding sites and K, the binding constant. A molecular weight of 108,000 for Con A was used in the calculations since Con A is a tetramer at neutral pH and the monomer mol wt. is 27,000.

mouse spleen lymphocytes = assay: Suppression of Con A-induced lymphocyte mitogenesis ([3H]-thymidine); assay type: cell-based; conditions: for inhibition of Con A-induced lymphocyte mitogenesis: added simultaneously with Con A, in words; for DPM × 10^-3 ([3H]-thymidine, DNA synthesis): geometric mean of quadruplicate ±1 S E, no inhibitor 124 ± 10; for inhibition at 40000 µM: Mus musculus, Lymphocyte, read-out: % SUPPRESSION
From the text: Mitogenic determination were made on 12 weeks old male C3 HeB/FeJ mouse (Jackson Laboratory, Bar Harbour, ME) spleen cells. The method used for cell preparation and assay of mitogenic activity is described elsewhere (Richardson, E. C., and Alving, C. R. (1984) Rev. Infect. Dis., Vol. 6, pages 532-534). Briefly spleen cells were extracted into HSB (HEM Research Inc., Rockville, MD), purified on a Ficoll-Hypaque solution, washed twice with HBS and suspended in a medium containing Eagles MEM with Earle's salts (GIBCO, Grand Island, NY), penicillin 100 μg/ml and streptomycin 100 μg/ml (GIBCO), 5×10^-5 M 2-mercaptoethanol (Matheson, Coleman and Bell, Norwood, OH) and 5% fetal bovine serum (MBA, Walkersville, MD). Cultures containing 2×10^5 viable cells/0.2 ml were prepared in 96 wells microtiter plates (Linbro Chemical Co., New Haven, CT) containing Con A ([…] Con A protein/ml culture) with either 40 μmoles/ml α-MM or myo-inositol. Cultures were incubated at 37° C. in 5% CO2 and air for 48 hours. Four hours prior to harvesting, the cells were pulsed with 1 μCi of [^3 H]-thymidine, harvested on glass fiber filters with a cell harvester and the radioactivity determined by liquid scintillation.
Cultures containing 2×10^5 mouse spleen lymphocytes in 0.2 ml medium were stimulated with 6 μg Con A/ml in the presence of 40 μmoles/ml of α-MM or myo-inositol and incubated for 48 hours. DNA synthesis was determined by pulsing the cultures 4 hours prior to harvesting with 1 μCi of [^3 H]-thymidine. The values represent the geometric mean of quadruplicate cultures ±1 S E.

Con A [3] = target: T1, Con A; assay: Inhibition of Con A binding to liposomes by mixtures of α-MM and myo-inositol; conditions: for relative inhibitory potency, PI present in the liposomes: liposomes containing PI; for type of inhibition on simultaneous addition of both inhibitors: simultaneous addition of both inhibitors to Con A and liposomes
Description: Similar incubations as those described in FIG. 1 were set up with liposomes and Con A. Myo-inositol and α-MM were mixed together as inhibitors in the concentrations indicated.
as §1
In order to characterize further the binding of Con A to liposomal PLs, and especially to PI, we mixed varying concentrations of α-MM with varrying concentrations of myo-inositol. Our reasoning was that if α-MM and myo-inositol complete for the same binding site we would record similar inhibitions to those shown in FIG. 2. […] The opposite occurred with liposomes lacking PI.

[4] = myo-inositol and α-MM simultaneously used, FIG. 4
[5] = 6 μg Con A/ml, 40 μmoles/ml inhibitor, 48 hours

C[C@@H]1O[C@@H](O)[C@@H](O)[C@H](O)[C@@H]1O [α-L-fucose]
inhibition of Con A binding to liposomes containing PI (Con A [1]; increasing concentrations, liposomes containing PI): no inhibition was observed | inhibition of Con A binding to liposomes lacking PI (Con A [1]; increasing concentrations, liposomes lacking PI): no inhibition was observed | binding to Con A (Con A [2]; 0.01M bicarbonate-saline, pH 7.0, room temperature): No binding could be detected | inhibition of Con A-induced lymphocyte mitogenesis (mouse spleen lymphocytes): No inhibition

O[C@H]1[C@H](O)[C@@H](O)[C@H](O)[C@@H](O)[C@H]1O [myo-inositol]
IC50 (Con A [1]): 10 mM | relative inhibitory potency, PI present in the liposomes (Con A [3]; [4]): the more potent inhibitor | type of inhibition on simultaneous addition of both inhibitors (Con A [3]): non-competitive | Kd (Con A [2]): 0.769 mM | DPM × 10^-3 ([3H]-thymidine, DNA synthesis) (mouse spleen lymphocytes; [5]): 86 ± 8 DPM × 10^-3 | inhibition at 40000 µM (mouse spleen lymphocytes; [5]): 31% | inhibition of Con A-induced lymphocyte mitogenesis (mouse spleen lymphocytes): significant inhibition was observed

CO[C@H]1O[C@H](CO)[C@@H](O)[C@H](O)[C@@H]1O [α-MM, α-methyl mannoside]
inhibition at 1000 µM (Con A [1]; read-out: inhibition of Con A binding to DMPC liposomes): ~50% | inhibition at 1000 µM (Con A [1]; read-out: inhibition of Con A binding to DMPC/PI liposomes): ~50% | relative inhibitory potency, PI present in the liposomes (Con A [3]; [4]): could not provide similar inhibition | relative inhibitory potency, PI absent from liposomes (Con A [3]; myo-inositol and α-MM simultaneously used, liposomes lacking PI, FIG. 4): a more potent inhibitor than inositol | type of inhibition on simultaneous addition of both inhibitors (Con A [3]): non-competitive | DPM × 10^-3 ([3H]-thymidine, DNA synthesis) (mouse spleen lymphocytes; [5]): 1.3 ± 0.2 DPM × 10^-3 | inhibition at 40000 µM (mouse spleen lymphocytes; 48 h): 99% | inhibition of Con A-induced lymphocyte mitogenesis (mouse spleen lymphocytes): more effective inhibitor than myo-inositol
